Experimental data published in patent publication US20160023126A1, “SPRAY DRYING TECHNIQUES” (President and Fellows of Harvard College, priority 2010, published 2016).

Tests used:
Type in all cases: physicochemical
[1] = SEM analysis of particle size and morphology of spray-dried drug; details: microfluidic spray dryer; danazol in IPA and pure IPA (antisolvent replaced by solvent)
Protocol: To evaluate the effect of microfluidic processing on particle size and morphology of the hydrophobic drug, no stabilizer or surfactant was added to influence the particle growth. […] Morphology and particle size of the processed drug was examined by scanning electron microscopy (“SEM”) analysis. […] The scale bar denotes 300 nm.
(§1) Processed danazol was collected at distances between 5 cm and 30 cm from the spray nozzle. For SEM analysis, the spray was collected on glass slides and coated with Pd/Pt. An Ultra55 Field Emission SEM (Zeiss) coupled with an EDX detector was used. The size distribution of the nanoparticles was determined by image analysis of SEM photographs using ImageJ. For XRPD analysis, samples were collected in an aluminum box over which the spray dryer was mounted. XPRD analysis was performed using a Scintag XDS2000 powder diffractometer (Scintag, Cupertino, California, USA) with Cu Ka (K-alpha) radiation at 40 kV and 30 mA. The XRD patterns were taken at room temperature in the range of 10°≦2θ≦50° (2 theta) with a scan rate of 1° min^−1 and a step size of 0.02°.

[2] = Energy dispersive X-ray (EDX) analysis of chemical composition after spray drying; details: unprocessed vs processed danazol, either solvent system (IPA/water, IPA/IPA)
Protocol: Scale bar denotes 300 nm.
as §1

[3] = X-ray powder diffraction analysis (XRPD) of crystallinity
Excerpt: X-ray powder diffraction analysis (“XRPD”) was employed to determine the effect of spatial sampling on the crystallinity of danazol. Characteristic peaks at 20 (2 theta) of 15.8, 17.1 and 19.0 in the XRD pattern of unprocessed danazol were used as reference. In processed danazol, the intensity of the characteristic peaks decreased as the collection distance of the spray is increased. These figures show nanoparticles, approximately 20 nm to 60 nm in diameter, assembled in a dense network.
as §1

- size and morphology of nanoparticles compared with IPA/water system [1]: identical size and morphology
- chemical composition of the drug during the spray drying process [2]: remained unchanged
- crystallinity (XRPD) ([3]; conventional Mini Spray Dryer B 191, solution of danazol in IPA): retained
- crystallinity (XRPD pattern) ([3]; microfluidic spray dryer, danazol in IPA with water, collected 5 cm from nozzle): crystalline aggregates
SMILES: C#C[C@]1(O)CC[C@H]2[C@@H]3CCC4=Cc5oncc5C[C@]4(C)[C@H]3CC[C@@]21C [danazol]
- crystallinity (intensity of characteristic XRPD peaks) ([3]; microfluidic spray dryer, collection distance of the spray increased (5 cm to 30 cm)): initial crystallinity of the drug was not recovered
